Laboratory results reported in US8299111B2, “Compounds which modulate the CB2 receptor” (Boehringer Ingelheim International GmbH, priority 2006, dated 2012).

Target: T1, human CB2R (Homo sapiens, UniProt P34972)
T1 construct: host or cells: CHO cells
Test: CB2R mediated modulation of cAMP synthesis
Type: cell-based
Conditions: found through the use of the above described assays (binding and cAMP); CHO cells expressing human CB2R, forskolin-stimulated cAMP
Outline: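 EC50 values reflect inhibition of cAMP made in response to 10 uM forskolin (with 1 mM IBMX, 0.25% BSA) over 30 min at 37 °C in human CB2R-expressing CHO cells. The window runs from forskolin alone to 1 uM CP55940; curves fitted with a four-parameter logistic model.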

T1 sequence (P34972 whole entry): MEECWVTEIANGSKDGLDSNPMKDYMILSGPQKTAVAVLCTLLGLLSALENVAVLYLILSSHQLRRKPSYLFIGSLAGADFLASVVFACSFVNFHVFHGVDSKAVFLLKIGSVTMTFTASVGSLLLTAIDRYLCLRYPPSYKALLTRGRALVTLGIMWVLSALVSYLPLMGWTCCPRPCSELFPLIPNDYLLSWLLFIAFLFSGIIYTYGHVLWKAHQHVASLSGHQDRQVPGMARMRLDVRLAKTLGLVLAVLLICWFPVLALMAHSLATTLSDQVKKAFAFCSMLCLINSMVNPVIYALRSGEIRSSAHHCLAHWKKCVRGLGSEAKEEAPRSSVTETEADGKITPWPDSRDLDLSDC

Row | SMILES | agonistic activity
1 | CC(C)(C(=O)Nc1cc2ccccc2cn1)S(=O)(=O)c1ccc(Cl)cc1 [2-(4-Chloro-benzenesulfonyl)-N-isoquinolin-3-yl-2-methyl-propionamide] | agonistic activity
2 | CC(C)(C(=O)Nc1ccc(C(F)(F)F)cn1)S(=O)(=O)c1ccc(C#N)cc1F [2-(4-Cyano-2-fluoro-benzenesulfonyl)-2-methyl-N-(5-trifluoromethyl-pyridin-2-yl)-propionamide] | agonistic activity
3 | CC(C)(C(=O)Nc1ccc(C(F)(F)F)cn1)S(=O)(=O)c1ccc(C#N)cc1 [2-(4-Cyano-benzenesulfonyl)-2-methyl-N-(5-trifluoromethyl-pyridin-2-yl)-propionamide] | agonistic activity
4 | CC(C)(C(=O)Nc1ccc(C(F)(F)F)cn1)S(=O)(=O)c1ccc(F)cc1 [2-(4-Fluoro-benzenesulfonyl)-2-methyl-N-(5-trifluoromethyl-pyridin-2-yl)-propionamide] | agonistic activity
5 | CC(C)(C(=O)Nc1cccc(C(F)(F)F)n1)S(=O)(=O)c1ccc(F)cc1 [2-(4-Fluoro-benzenesulfonyl)-2-methyl-N-(6-trifluoromethyl-pyridin-2-yl)-propionamide] | agonistic activity
6 | CC(C)(C(=O)Nc1ncc(-c2ccc(F)cc2)s1)S(=O)(=O)c1ccc(F)cc1 [2-(4-Fluoro-benzenesulfonyl)-N-[5-(4-fluoro-phenyl)-thiazol-2-yl]-2-methyl-propionamide] | agonistic activity
7 | Cc1ccc(NC(=O)C(C)(C)S(=O)(=O)c2ccc(S(C)(=O)=O)cc2)nc1 [2-(4-Methanesulfonyl-benzenesulfonyl)-2-methyl-N-(5-methyl-pyridin-2-yl)-propionamide] | agonistic activity
8 | CC(C)(C(=O)Nc1cccc2ccccc12)S(=O)(=O)c1ccc(S(C)(=O)=O)cc1 [2-(4-Methanesulfonyl-benzenesulfonyl)-2-methyl-N-naphthalen-1-yl-propionamide] | agonistic activity
9 | CC(C)(C(=O)Nc1cnc2ccccc2c1)S(=O)(=O)c1ccc(S(C)(=O)=O)cc1 [2-(4-Methanesulfonyl-benzenesulfonyl)-2-methyl-N-quinolin-3-yl-propionamide] | agonistic activity
10 | COc1ccc(S(=O)(=O)C(C)(C)C(=O)Nc2cc(-c3ccccc3)nn2C)cc1 [2-(4-Methoxy-benzenesulfonyl)-2-methyl-N-(2-methyl-5-phenyl-2H-pyrazol-3-yl)-propionamide] | agonistic activity
11 | COc1ccc(S(=O)(=O)C(C)(C)C(=O)Nc2cc(-c3cccs3)nn2C)cc1 [2-(4-Methoxy-benzenesulfonyl)-2-methyl-N-(2-methyl-5-thiophen-2-yl-2H-pyrazol-3-yl)-propionamide] | agonistic activity
12 | COc1ccc(S(=O)(=O)C(C)(C)C(=O)Nc2nc(C(F)(F)F)cs2)cc1 [2-(4-Methoxy-benzenesulfonyl)-2-methyl-N-(4-trifluoromethyl-thiazol-2-yl)-propionamide] | agonistic activity
13 | COc1ccc(S(=O)(=O)C(C)(C)C(=O)Nc2cnc3ccccc3c2)cc1 [2-(4-Methoxy-benzenesulfonyl)-2-methyl-N-quinolin-3-yl-propionamide] | agonistic activity
14 | CC(C)(C)c1ccc(S(=O)(=O)C(C)(C)C(=O)Nc2cc(C(C)(C)C)on2)cc1 [2-(4-tert-Butyl-benzenesulfonyl)-N-(5-tert-butyl-isoxazol-3-yl)-2-methyl-propionamide] | agonistic activity
15 | CC(C)(C(=O)Nc1cccc(C(F)(F)F)n1)S(=O)(=O)c1ccc(N2CCC2)nc1 [2-(6-Azetidin-1-yl-pyridine-3-sulfonyl)-2-methyl-N-(6-trifluoromethyl-pyridin-2-yl)-propionamide] | agonistic activity
16 | CC(C)(C)c1csc(NC(=O)C(C)(C)S(=O)(=O)c2ccc(N3CCC3)nc2)n1 [2-(6-Azetidin-1-yl-pyridine-3-sulfonyl)-N-(4-tert-butyl-thiazol-2-yl)-2-methyl-propionamide] | agonistic activity
17 | CC(C)(C(=O)Nc1ccc(C(F)(F)F)cn1)S(=O)(=O)c1ccc(Cl)nc1 [2-(6-Chloro-pyridine-3-sulfonyl)-2-methyl-N-(5-trifluoromethyl-pyridin-2-yl)-propionamide] | agonistic activity
18 | CC(C)(C(=O)Nc1cccc(C(F)(F)F)n1)S(=O)(=O)c1ccc(Cl)nc1 [2-(6-Chloro-pyridine-3-sulfonyl)-2-methyl-N-(6-trifluoromethyl-pyridin-2-yl)-propionamide] | agonistic activity
19 | CC(C)(C)c1cc(NC(=O)C(C)(C)S(=O)(=O)c2ccc3nsnc3c2)no1 [2-(Benzo[1,2,5]thiadiazole-5-sulfonyl)-N-(5-tert-butyl-isoxazol-3-yl)-2-methyl-propionamide] | agonistic activity
20 | Cn1nc(-c2ccccc2)cc1NC(=O)C(C)(C)S(=O)(=O)c1ccccc1 [2-Benzenesulfonyl-2-methyl-N-(2-methyl-5-phenyl-2H-pyrazol-3-yl)-propionamide] | agonistic activity

Row | SMILES | agonistic activity
21 | CC(C)(C(=O)Nc1nc(-c2ccccc2)co1)S(=O)(=O)c1ccccc1 [2-Benzenesulfonyl-2-methyl-N-(4-phenyl-oxazol-2-yl)-propionamide] | agonistic activity
22 | CC(C)(C(=O)Nc1nc(C(F)(F)F)cs1)S(=O)(=O)c1ccccc1 [2-Benzenesulfonyl-2-methyl-N-(4-trifluoromethyl-thiazol-2-yl)-propionamide] | agonistic activity
23 | CC(C)(C(=O)Nc1ccc(C(F)(F)F)cn1)S(=O)(=O)c1ccccc1 [2-Benzenesulfonyl-2-methyl-N-(5-trifluoromethyl-pyridin-2-yl)-propionamide] | agonistic activity
24 | CC(C)(C(=O)Nc1cccc(C(F)(F)F)n1)S(=O)(=O)c1ccccc1 [2-Benzenesulfonyl-2-methyl-N-(6-trifluoromethyl-pyridin-2-yl)-propionamide] | agonistic activity
25 | CC(C)(C)c1csc(NC(=O)C(C)(C)S(=O)(=O)c2ccccc2)n1 [2-Benzenesulfonyl-N-(4-tert-butyl-thiazol-2-yl)-2-methyl-propionamide] | agonistic activity
26 | CCc1sc(NC(=O)C(C)(C)S(=O)(=O)c2ccccc2)nc1-c1ccccc1 [2-Benzenesulfonyl-N-(5-ethyl-4-phenyl-thiazol-2-yl)-2-methyl-propionamide] | agonistic activity
27 | Cn1nc(C(C)(C)C)cc1NC(=O)C(C)(C)S(=O)(=O)c1ccccc1 [2-Benzenesulfonyl-N-(5-tert-butyl-2-methyl-2H-pyrazol-3-yl)-2-methyl-propionamide] | agonistic activity
28 | Cc1nc(NC(=O)C(C)(C)S(=O)(=O)c2ccccc2)sc1C(C)(C)C [2-Benzenesulfonyl-N-(5-tert-butyl-4-methyl-thiazol-2-yl)-2-methyl-propionamide] | agonistic activity
29 | CC(C)(C)c1cc(NC(=O)C(C)(C)S(=O)(=O)c2ccccc2)no1 [2-Benzenesulfonyl-N-(5-tert-butyl-isoxazol-3-yl)-2-methyl-propionamide] | agonistic activity
30 | CC(C)(C(=O)Nc1nc(-c2ccc(Cl)cc2)cs1)S(=O)(=O)c1ccccc1 [2-Benzenesulfonyl-N-[4-(4-chloro-phenyl)-thiazol-2-yl]-2-methyl-propionamide] | agonistic activity
31 | CC(C)(C(=O)Nc1ccc(C(F)(F)F)cn1)S(=O)(=O)c1ccc(C(F)(F)F)cc1 [2-Methyl-2-(4-trifluoromethyl-benzenesulfonyl)-N-(5-trifluoromethyl-pyridin-2-yl)-propionamide] | agonistic activity
32 | Cc1ccc(S(=O)(=O)C(C)(C)C(=O)Nc2ccc(C(F)(F)F)cn2)cn1 [2-Methyl-2-(6-methyl-pyridine-3-sulfonyl)-N-(5-trifluoromethyl-pyridin-2-yl)-propionamide] | agonistic activity
33 | Cc1ccc(S(=O)(=O)C(C)(C)C(=O)Nc2cccc(C(F)(F)F)n2)cn1 [2-Methyl-2-(6-methyl-pyridine-3-sulfonyl)-N-(6-trifluoromethyl-pyridin-2-yl)-propionamide] | agonistic activity
34 | CC(C)(C(=O)Nc1ccc(C(F)(F)F)cn1)S(=O)(=O)c1ccc(N2CCOCC2)nc1 [2-Methyl-2-(6-morpholin-4-yl-pyridine-3-sulfonyl)-N-(5-trifluoromethyl-pyridin-2-yl)-propionamide] | agonistic activity
35 | CC(C)(C(=O)Nc1cc(C(F)(F)F)ccn1)S(=O)(=O)c1ccc(C(F)(F)F)nc1 [2-Methyl-2-(6-trifluoromethyl-pyridine-3-sulfonyl)-N-(4-trifluoromethyl-pyridin-2-yl)-propionamide] | agonistic activity
36 | CC(C)(C(=O)Nc1ccc(C(F)(F)F)cn1)S(=O)(=O)c1ccc(C(F)(F)F)nc1 [2-Methyl-2-(6-trifluoromethyl-pyridine-3-sulfonyl)-N-(5-trifluoromethyl-pyridin-2-yl)-propionamide] | agonistic activity
37 | Cc1ccc(S(=O)(=O)C(C)(C)C(=O)Nc2nc(C(F)(F)F)cs2)cc1 [2-Methyl-2-(toluene-4-sulfonyl)-N-(4-trifluoromethyl-thiazol-2-yl)-propionamide] | agonistic activity
38 | Cc1ccc(S(=O)(=O)C(C)(C)C(=O)Nc2ccc(C(F)(F)F)cn2)cc1 [2-Methyl-2-(toluene-4-sulfonyl)-N-(5-trifluoromethyl-pyridin-2-yl)-propionamide] | agonistic activity
39 | Cc1ccc(S(=O)(=O)C(C)(C)C(=O)Nc2cccc(C(F)(F)F)n2)cc1 [2-Methyl-2-(toluene-4-sulfonyl)-N-(6-trifluoromethyl-pyridin-2-yl)-propionamide] | agonistic activity
